Assay results published in ChEMBL document CHEMBL1142172, “Curing Mycobacterium ulcerans infection in mice with a combination of rifampin-streptomycin or rifampin-amikacin” (2007).

Key:
Mycobacterium ulcerans [1] = test: Antimycobacterial activity in Mycobacterium ulcerans Cu001 infected BALB/c mouse assessed as mean number of CFU per foot-pad at […], sc after 2 weeks; type: functional
Mycobacterium ulcerans [2] = test: Antimycobacterial activity in Mycobacterium ulcerans Cu001 infected BALB/c mouse assessed as mean number of CFU per foot-pad at 10 mg/kg, sc after 2 weeks; type: functional; conditions: route subcutaneous

For CN[C@@H]1[C@H](O[C@H]2[C@H](O[C@H]3[C@H](O)[C@@H](O)[C@H](N=C(N)N)[C@@H](O)[C@@H]3N=C(N)N)O[C@@H](C)[C@]2(O)C=O)O[C@@H](CO)[C@H](O)[C@H]1O [STREPTOMYCIN], the Log10 cfu (Mycobacterium ulcerans [1]) was 4.13.

Molecule CO[C@H]1/C=C/O[C@@]2(C)Oc3c(C)c(O)c4c(O)c(c(/C=N/N5CCN(C)CC5)c(O)c4c3C2=O)NC(=O)/C(C)=C\C=C\[C@H](C)[C@H](O)[C@@H](C)[C@@H](O)[C@@H](C)[C@H](OC(C)=O)[C@@H]1C [RIFAMPIN] has a Log10 cfu (Mycobacterium ulcerans [2]) of 4.13.

NCC[C@H](O)C(=O)N[C@@H]1C[C@H](N)[C@@H](O[C@H]2O[C@H](CN)[C@@H](O)[C@H](O)[C@H]2O)[C@H](O)[C@H]1O[C@H]1O[C@H](CO)[C@@H](O)[C@H](N)[C@H]1O [AMIKACIN] gave a Log10 cfu (Mycobacterium ulcerans [1]) of 3.92.
